Data: patent US6362233B1, “Methoxy capped alkoxylated glycerin compounds” (Phoenix Research Corporation, priority 2001, dated 2002)

Assay: Hydrolysis stability test: 10% test material in solution adjusted to pH 5 with lactic acid, placed at 50 C. for 5 days
Type: physicochemical
Conditions: pH adjusted to 5 with lactic acid
Source text: The compounds of the present invention are stable to hydrolysis and provide emollient properties to skin. Typical of the stability of the compounds of the present invention compared to acetate salts is as follows:
pH adjusted to 5 with lactic acid.
10% test material added to get solution.
Placed at 50 C. for 5 days.

| Substance | Result (stability to hydrolysis) |
| --- | --- |
| Glycereth-7-Methoxy capped | Stable clear liquid |
| Glycereth-7-acetate | Acetic smell, hydrolyzed |
